Where “and” joins values, the source holds several entries; their conditions need not be identical. Equal entries are not always repeated. Where two headings read alike, the source gives them in different places.
Experiments:
[1] = type: physicochemical
[2] = Dissolution in near neutral solution at pH 6.5; type: physicochemical; settings: for Time until capsule opens: pH 6.5, 150 mls, 37° C., stirred
Description: Dissolution experiments were carried out on NaHAs2O4 at 2 different pH levels. Firstly, simulated gastric fluid (pH 1.24) was used, then a near neutral solution at pH 6.5. Prior to addition of the capsules, 150 mls of the dissolution solution was heated to 37° C. and the solution contained a spin bar at a speed of 2. The appropriate capsule was then added.

[3] = cited from earlier work
[4] = cited from earlier work; remark: listed apart in the source
[5] = gelatin capsule in 150 mL simulated gastric solution, approx. pH 1.2, 37° C.

Substance	Time until capsule opens ([1]; 10 mg capsule, pH 1.24, 150 mls, 37° C., stirred)	Time to complete dissolution in gastric juices [1]	Time to complete dissolution in gastric juices ([1]; 'even less than')	Time until capsule shell had dissolved [1, 5]	Time until contents had completely dissolved [1, 5]	Time to dissolve ([1]; pH about 1)	Time until powder was completely dissolved ([1]; simulated gastric fluid pH 1.24, 37° C.)	Dissolution in stomach acid (in words) ([1]; stomach acid)	Time until capsule opens ([2]; 1 mg capsule)	Time until capsule opens ([2]; 10 mg capsule)	Time until powder was completely dissolved ([2]; near neutral solution pH 6.5, 37° C.)	Time to dissolve ([2]; pH 7)	Solubility (in words) ([3]; neutral pH)	Solubility in water (in words) ([3]; physiological or acidic pH)	Time required for complete dissolution ([4]; 0.1 M NaOH)	Dissolution (in words) ([4]; in vitro, strong stirring, low pH)
sodium diarsenic tetraoxide [NaHAs2O4]	35 s and 40 s	less than 1 min	less than 30 seconds	less than or about one minute	≤ 2 min	less than 10 seconds	less than two minutes	very rapidly dissolved in stomach acid without any precipitation	50 s and 45 s	55 s and 50 s	less than two minutes	well under a minute				
arsenic trioxide													only slightly soluble	only sparingly soluble	15 to 20 min	very slow process
